Results from US20020146411A1, “Anticoagulant agents useful in treatment of thrombosis” (SmithKline Beecham Corporation, priority 1996, published 2002).
“Also recorded” adds a separate entry of the source.

Key:
[1] = test system: BC2 antibody; experiment: BiaCore binding of Factor IX/Factor VII constructs to immobilized BC2; details: for Degree of Binding to BC2: 200 nM construct, 25 mM MOPS pH 7.4, 0.15 M NaCl, 5 mM CaCl2
Method: A library of chimeric constructs composed of sequences of Factor IX spliced into the framework of the homologous protein Factor VII was constructed and used to map the epitope for the Factor IX BC2 mAb. See Cheung et al., Thromb. Res. 80, 419-427 (1995). Binding was measured using a BiaCore 2000 surface plasmon resonance device. The BC2 antibody was coupled directly to the chip using the NHS/EDC reaction. Binding was measured by 2 min of contact time at 20 uL/min with 200 nM of each of the given constructs in 25 mM MOPS, pH 7.4, 0.15 M NaCl, 5 mM CaCl2. Dissociation was monitored for 3 min using the same buffer with no protein. No binding was detected to the wild type construct in the presence of 50 mM EDTA.

[2] = test system: rat carotid artery thrombosis; experiment: Rat carotid artery thrombosis model (FeCl3 injury), Example 3; type: in vivo
Text: In order to evaluate the efficacy of anti-Factor IX antibodies in prevention of arterial thrombosis, the rat carotid artery thrombosis model as reported by Schumacher et al. in J. Cardio. Pharm. 22, 526-533 (1993) was adapted. This model consists of segmental injury to the carotid endothelium by oxygen radicals generated by FeCl3 solution applied on the surface of the carotid artery.
In brief, rats were anesthetized with pentobarbitone sodium, the jugular vein cannulated for intravenous injections and the left femoral artery cannulated for blood pressure and heart rate monitoring. The carotid artery was isolated by aseptic technique via a surgical incision in the neck and equipped with a magnetic flow probe for blood flow measurement. After a period of stabilization, baseline parameters were established for the following variables: carotid blood flow, arterial pressure, heart rate, activated partial thromboplastin time (aPTT) and prothrombin time (PT). Thereafter, a premeasured Whatman filter paper soaked in 50% FeCl3 solution was placed on the carotid artery for 15 minutes for complete injury of the underlying endothelial cells. After removal of the FeCl3 soaked paper, the experiment was followed to completion over 60 minutes. At the end of the experiment, the carotid thrombus was extracted from the carotid artery and weighed.
All agents were administered 15 minutes prior to the onset of carotid injury. The following treatments were examined and compared to the Factor IX mAb BC2.
1. Heparin: 15, 30, 60 or 120 U/kg bolus, followed by infusion of 0.5, 1, 2 or 4 U/kg/min, respectively over 60 minutes
2. Acetylsalicylic acid (ASA, aspirin): 5 mg/kg bolus
3. Anti-Factor IX mAb BC2: 1, 3 or 6 mg/kg bolus, followed by infusion 0.3, 1, or 2 ug/kg/min, respectively over 60 minutes
4. Heparin: 30U/kg bolus+lU/kg/min+ASA at 5 mg/kg
5. Anti-Factor IX mAb BC2: 1 mg/kg+0.3 ug/kg/min+ASA at 5 mg/kg

Degree of Binding to BC2 [1] | Compound | also measured
Binds | Plasma IXa: plasma Factor IXa, wild type Factor IX | 
No Binding | Plasma VII: plasma Factor VII | 
 | CC(=O)Oc1ccccc1C(=O)O [ASA, Acetylsalicylic acid, reference compound] | effect on carotid artery occlusion (FIG. 6) [2]: only a minor effect; effect on thrombus weight (FIG. 7) [2]: only a partial effect; effect on aPTT at 60 minutes (FIG. 4) ([2]; regimens of b146-b150, given 15 minutes before injury): did not significantly increase aPTT
No Binding | VII gla/IX: chimeric Factor VII/Factor IX construct | 
Very Low Binding | VII gla (IX 3-6)/IX: chimeric Factor VII/Factor IX construct | 
Binds | r-IX: recombinant wild type Factor IX | 
Very Low Binding | VII gla (IX 9-11)/IX: chimeric Factor VII/Factor IX construct | 
 | wild type construct: wild type Factor IX construct used in BC2 epitope mapping | binding to BC2 in the presence of EDTA ([1]; 50 mM EDTA): No binding

Compound | Degree of Binding to BC2 [1] | also measured
VII gla (IX 3-11)/IX: residues 3-11 of Factor IX gla domain within the Factor VII gla domain | exhibit binding to BC2; also recorded: equivalent to wild type Factor IX; also recorded: Binds | 
IX K5A: Factor IX having a lysine to alanine substitution at residue 5 | exhibit binding to BC2; also recorded: Binds | 
